# Patent publication US20230013823A1, “INHIBITORS OF HUMAN IMMUNODEFICIENCY VIRUS REPLICATION” (VIV HEALTHCARE UK (No. 5) LIMITED, priority 2019, published 2023)
# Tests used:
# [1] = Compound cytotoxicity, XTT-based colorimetric assay; format: cell-based; settings: human; uninfected MT2 cells, day 4, XTT
# Procedure: Compound cytotoxicity and the corresponding CC50 values were determined using the same protocol as described in the antiviral assay except that uninfected cells were used. Cytotoxicity was assessed on day 4 in uninfected MT2 cells by using an XTT (2,3-bis[2-Methoxy-4-nitro-5-sulfophenyl]-2H-tetrazolium-5-carboxyanilide inner salt)-based colorimetric assay (Sigma-Aldrich, St Louis, Mo.).
# [2] = test system: recombinant NL4-3 virus (Renilla luciferase in nef); assay: HIV cell culture assay (antiviral activity, luciferase readout in MT-2 cells); format: cell-based; settings: Renilla, NL43
# In short: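 MT-2 cells were infected for 4-5 days with 293T-derived recombinant NL4-3 reporter virus in the presence of serially diluted compound. Antiviral activity was quantified as luciferase activity using a live-cell substrate. EC50 was derived from the median effect equation.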
SMILES,CC50 at 4 days [1],EC50 [2]
"Cn1nc(NS(C)(=O)=O)c2c(Cl)ccc(-n3c([C@H](Cc4cc(F)cc(F)c4)NC(=O)Cn4nc(C(F)F)c5c4C(F)(F)[C@@H]4C[C@H]54)nc4cc(-c5ccc6ocnc6c5)ccc4c3=O)c21 (atropisomer, axis not shown; (P)) [Example 46, N—((S)-1-(7-(benzo[d]oxazol-5-yl)-(3P)-3-(4-chloro-1-methyl-3-(methylsulfonamido)-1H-indazol-7-yl)-4-oxo-3,4-dihydroquinazolin-2-yl)-2-(3,5-difluorophenyl)ethyl)-2-((3bS,4aR)-3-(difluoromethyl)-5,5-difluoro-3b,4,4a,5-tetrahydro-1H-cyclopropa[3,4]cyclopenta[1,2-c]pyrazol-1-yl)acetamide]",> 100 nM,0.34 nM
"Cn1nc(NS(C)(=O)=O)c2c(Cl)ccc(-n3c([C@H](Cc4cc(F)cc(F)c4)NC(=O)Cn4nc(C(F)F)c5c4C(F)(F)[C@@H]4C[C@H]54)nc4cc(-c5ccn(CC(F)(F)C(F)F)n5)ccc4c3=O)c21 (atropisomer, axis not shown; (P)) [Example 47, N—((S)-1-((3P)-3-(4-chloro-1-methyl-3-(methylsulfonamido)-1H-indazol-7-yl)-4-oxo-7-(1-(2,2,3,3-tetrafluoropropyl)-1H-pyrazol-3-yl)-3,4-dihydroquinazolin-2-yl)-2-(3,5-difluorophenyl)ethyl)-2-((3bS,4aR)-3-(difluoromethyl)-5,5-difluoro-3b,4,4a,5-tetrahydro-1H-cyclopropa[3,4]cyclopenta[1,2-c]pyrazol-1-yl)acetamide]",> 100 nM,0.07 nM
"Cn1nc(NS(C)(=O)=O)c2c(Cl)ccc(-n3c([C@H](Cc4cc(F)cc(F)c4)NC(=O)Cn4nc(C(F)F)c5c4C(F)(F)[C@@H]4C[C@H]54)nc4cc(-c5ccn(CC(F)(F)C(F)(F)F)n5)ccc4c3=O)c21 (atropisomer, axis not shown; (P)) [Example 48, N—((S)-1-((3P)-3-(4-chloro-1-methyl-3-(methylsulfonamido)-1H-indazol-7-yl)-4-oxo-7-(1-(2,2,3,3,3-pentafluoropropyl)-1H-pyrazol-3-yl)-3,4-dihydroquinazolin-2-yl)-2-(3,5-difluorophenyl)ethyl)-2-((3bS,4aR)-3-(difluoromethyl)-5,5-difluoro-3b,4,4a,5-tetrahydro-1H-cyclopropa[3,4]cyclopenta[1,2-c]pyrazol-1-yl)acetamide]",> 100 nM,0.091 nM
"CCC(F)(F)Cn1ccc(-c2ccc3c(=O)n(-c4ccc(Cl)c5c(NS(C)(=O)=O)nn(C)c45)c([C@H](Cc4cc(F)cc(F)c4)NC(=O)Cn4nc(C(F)F)c5c4C(F)(F)[C@@H]4C[C@H]54)nc3c2)n1 (atropisomer, axis not shown; (P)) [Example 49, N—((S)-1-((3P)-3-(4-chloro-1-methyl-3-(methylsulfonamido)-1H-indazol-7-yl)-7-(1-(2,2-difluorobutyl)-1H-pyrazol-3-yl)-4-oxo-3,4-dihydroquinazolin-2-yl)-2-(3,5-difluorophenyl)ethyl)-2-((3bS,4aR)-3-(difluoromethyl)-5,5-difluoro-3b,4,4a,5-tetrahydro-1H-cyclopropa[3,4]cyclopenta[1,2-c]pyrazol-1-yl)acetamide]",> 100 nM,0.081 nM
"Cn1nc(NS(C)(=O)=O)c2c(Cl)ccc(-n3c([C@H](Cc4cc(F)cc(F)c4)NC(=O)Cn4nc(C(F)F)c5c4C(F)(F)[C@@H]4C[C@H]54)nc4cc(-c5ccn(CCC(F)(F)F)n5)ccc4c3=O)c21 (atropisomer, axis not shown; (P)) [Example 50, N—((S)-1-((3P)-3-(4-chloro-1-methyl-3-(methylsulfonamido)-1H-indazol-7-yl)-4-oxo-7-(1-(3,3,3-trifluoropropyl)-1H-pyrazol-3-yl)-3,4-dihydroquinazolin-2-yl)-2-(3,5-difluorophenyl)ethyl)-2-((3bS,4aR)-3-(difluoromethyl)-5,5-difluoro-3b,4,4a,5-tetrahydro-1H-cyclopropa[3,4]cyclopenta[1,2-c]pyrazol-1-yl)acetamide]",> 100 nM,0.066 nM
"Cn1nc(NS(C)(=O)=O)c2c(Cl)ccc(-n3c([C@H](Cc4cc(F)cc(F)c4)NC(=O)Cn4nc(C(F)F)c5c4C(F)(F)[C@@H]4C[C@H]54)nc4cc(-c5ccn(CCCF)n5)ccc4c3=O)c21 (atropisomer, axis not shown; (P)) [Example 51, N—((S)-1-((3P)-3-(4-chloro-1-methyl-3-(methylsulfonamido)-1H-indazol-7-yl)-7-(1-(3-fluoropropyl)-1H-pyrazol-3-yl)-4-oxo-3,4-dihydroquinazolin-2-yl)-2-(3,5-difluorophenyl)ethyl)-2-((3bS,4aR)-3-(difluoromethyl)-5,5-difluoro-3b,4,4a,5-tetrahydro-1H-cyclopropa[3,4]cyclopenta[1,2-c]pyrazol-1-yl)acetamide]",> 100 nM,0.042 nM
"Cn1nc(NS(C)(=O)=O)c2c(Cl)ccc(-n3c([C@H](Cc4cc(F)cc(F)c4)NC(=O)Cn4nc(C(F)F)c5c4C(F)(F)[C@@H]4C[C@H]54)nc4cc(-c5ccn(CCC(C)(F)F)n5)ccc4c3=O)c21 (atropisomer, axis not shown; (P)) [Example 52, N—((S)-1-((3P)-3-(4-chloro-1-methyl-3-(methylsulfonamido)-1H-indazol-7-yl)-7-(1-(3,3-difluorobutyl)-1H-pyrazol-3-yl)-4-oxo-3,4-dihydroquinazolin-2-yl)-2-(3,5-difluorophenyl)ethyl)-2-((3bS,4aR)-3-(difluoromethyl)-5,5-difluoro-3b,4,4a,5-tetrahydro-1H-cyclopropa[3,4]cyclopenta[1,2-c]pyrazol-1-yl)acetamide]",> 100 nM,0.068 nM
"Cn1nc(NS(C)(=O)=O)c2c(Cl)ccc(-n3c([C@H](Cc4cc(F)cc(F)c4)NC(=O)Cn4nc(C(F)F)c5c4C(F)(F)[C@@H]4C[C@H]54)nc4cc(-c5ccn(CCCC(F)(F)F)n5)ccc4c3=O)c21 (atropisomer, axis not shown; (P)) [Example 53, N—((S)-1-((3P)-3-(4-chloro-1-methyl-3-(methylsulfonamido)-1H-indazol-7-yl)-4-oxo-7-(1-(4,4,4-trifluorobutyl)-1H-pyrazol-3-yl)-3,4-dihydroquinazolin-2-yl)-2-(3,5-difluorophenyl)ethyl)-2-((3bS,4aR)-3-(difluoromethyl)-5,5-difluoro-3b,4,4a,5-tetrahydro-1H-cyclopropa[3,4]cyclopenta[1,2-c]pyrazol-1-yl)acetamide]",> 100 nM,0.1 nM
"Cn1nc(NS(C)(=O)=O)c2c(Cl)ccc(-n3c([C@H](Cc4cc(F)cc(F)c4)NC(=O)Cn4nc(C(F)F)c5c4C(F)(F)[C@@H]4C[C@H]54)nc4cc(-c5ccn(CCOC(F)(F)F)n5)ccc4c3=O)c21 (atropisomer, axis not shown; (P)) [Example 54, N—((S)-1-((3P)-3-(4-chloro-1-methyl-3-(methylsulfonamido)-1H-indazol-7-yl)-4-oxo-7-(1-(2-(trifluoromethoxy)ethyl)-1H-pyrazol-3-yl)-3,4-dihydroquinazolin-2-yl)-2-(3,5-difluorophenyl)ethyl)-2-((3bS,4aR)-3-(difluoromethyl)-5,5-difluoro-3b,4,4a,5-tetrahydro-1H-cyclopropa[3,4]cyclopenta[1,2-c]pyrazol-1-yl)acetamide]",> 100 nM,0.098 nM
"Cn1nc(NS(C)(=O)=O)c2c(Cl)ccc(-n3c([C@H](Cc4cc(F)cc(F)c4)NC(=O)Cn4nc(C(F)F)c5c4C(F)(F)[C@@H]4C[C@H]54)nc4cc(-c5ccnc(CF)n5)ccc4c3=O)c21 (atropisomer, axis not shown; (P)) [Example 55, N—((S)-1-((3P)-3-(4-chloro-1-methyl-3-(methylsulfonamido)-1H-indazol-7-yl)-7-(2-(fluoromethyl)pyrimidin-4-yl)-4-oxo-3,4-dihydroquinazolin-2-yl)-2-(3,5-difluorophenyl)ethyl)-2-((3bS,4aR)-3-(difluoromethyl)-5,5-difluoro-3b,4,4a,5-tetrahydro-1H-cyclopropa[3,4]cyclopenta[1,2-c]pyrazol-1-yl)acetamide]",> 100 nM,0.056 nM
"Cn1nc(NS(C)(=O)=O)c2c(Cl)ccc(-n3c([C@H](Cc4cc(F)cc(F)c4)NC(=O)Cn4nc(C(F)F)c5c4C(F)(F)[C@@H]4C[C@H]54)nc4cc(-c5ccnc(C(F)F)n5)ccc4c3=O)c21 (atropisomer, axis not shown; (P)) [Example 56, N—((S)-1-((3P)-3-(4-chloro-1-methyl-3-(methylsulfonamido)-1H-indazol-7-yl)-7-(2-(difluoromethyl)pyrimidin-4-yl)-4-oxo-3,4-dihydroquinazolin-2-yl)-2-(3,5-difluorophenyl)ethyl)-2-((3bS,4aR)-3-(difluoromethyl)-5,5-difluoro-3b,4,4a,5-tetrahydro-1H-cyclopropa[3,4]cyclopenta[1,2-c]pyrazol-1-yl)acetamide]",> 100 nM,0.017 nM
"Cc1cc(-c2ccc3c(=O)n(-c4ccc(Cl)c5c(NS(C)(=O)=O)nn(C)c45)c([C@H](Cc4cc(F)cc(F)c4)NC(=O)Cn4nc(C(F)F)c5c4C(F)(F)[C@@H]4C[C@H]54)nc3c2)nn1CC(F)(F)C(F)F (atropisomer, axis not shown; (P)) [Example 57, N—((S)-1-((3P)-3-(4-chloro-1-methyl-3-(methylsulfonamido)-1H-indazol-7-yl)-7-(5-methyl-1-(2,2,3,3-tetrafluoropropyl)-1H-pyrazol-3-yl)-4-oxo-3,4-dihydroquinazolin-2-yl)-2-(3,5-difluorophenyl)ethyl)-2-((3bS,4aR)-3-(difluoromethyl)-5,5-difluoro-3b,4,4a,5-tetrahydro-1H-cyclopropa[3,4]cyclopenta[1,2-c]pyrazol-1-yl)acetamide]",> 100 nM,0.13 nM
